“And” between values parts separate entries of the source, which are not always exact repeats. Equal values may be shown once.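 The compound was tested at five concentrations on cells cultured in 96-well plates, with a 48-hour exposure period. Here, GI50 denotes the concentration required for 50% inhibition of growth.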 The source made the active and inactive calls. Cut-off read from the data, not from the text of the source: active = GI50 up to about 1.1 µM and inactive = higher. Residues, ends and D or L forms follow the SMILES beside them. *: point of attachment. Boc = CC(C)(C)OC(=O)*; Bn = c1ccc(C*)cc1
What was measured:
Assay in all cases: NCI-60 cell line screen, 48 h
A549 = tested on: A549
BT-549 = tested on: BT-549
EKVX = tested on: EKVX
HCT-15 = tested on: HCT-15
HL-60 = tested on: HL-60
HOP-62 = tested on: HOP-62
Hs-578T = tested on: Hs-578T
MCF7 = tested on: MCF7
MDA-MB-435 = tested on: MDA-MB-435
MDA-N = tested on: MDA-N
Malme-3M = tested on: Malme-3M
NCI-H226 = tested on: NCI-H226
NCI-H522 = tested on: NCI-H522
SF-268 = tested on: SF-268
SF-539 = tested on: SF-539
SK-MEL-28 = tested on: SK-MEL-28
SK-MEL-2 = tested on: SK-MEL-2
SN12C = tested on: SN12C
SNB-75 = tested on: SNB-75
UO-31 = tested on: UO-31
786-0 = tested on: 786-0
CAKI-1 = tested on: CAKI-1
DU-145 = tested on: DU-145
HCT-116 = tested on: HCT-116
HOP-92 = tested on: HOP-92
HT-29 = tested on: HT-29
IGROV-1 = tested on: IGROV-1
K562 = tested on: K562
KM12 = tested on: KM12
LOX IMVI = tested on: LOX IMVI
MDA-MB-231 = tested on: MDA-MB-231
MOLT-4 = tested on: MOLT-4
NCI-H23 = tested on: NCI-H23
NCI/ADR-RES = tested on: NCI/ADR-RES
OVCAR-4 = tested on: OVCAR-4
OVCAR-8 = tested on: OVCAR-8
SK-OV-3 = tested on: SK-OV-3
SNB-19 = tested on: SNB-19
SR = tested on: SR
SW-620 = tested on: SW-620
U-251 = tested on: U-251
UACC-257 = tested on: UACC-257
UACC-62 = tested on: UACC-62
ACHN = tested on: ACHN
CCRF-CEM = tested on: CCRF-CEM
COLO 205 = tested on: COLO 205
HCC 2998 = tested on: HCC 2998
M14 = tested on: M14
OVCAR-3 = tested on: OVCAR-3
OVCAR-5 = tested on: OVCAR-5
PC-3 = tested on: PC-3
RPMI-8226 = tested on: RPMI-8226
RXF 393 = tested on: RXF 393
SF-295 = tested on: SF-295
SK-MEL-5 = tested on: SK-MEL-5
TK-10 = tested on: TK-10

CC(C(=O)O)c1ccc(-c2ccccc2)c(F)c1 (centres undefined) [TARENFLURBIL]
GI50 (A549): > 100 µM (inactive)
GI50 (BT-549): > 100 µM (inactive)
GI50 (EKVX): > 100 µM (inactive)
GI50 (HCT-15): > 100 µM
GI50 (HL-60): > 100 µM (inactive)
GI50 (HOP-62): > 100 µM (inactive)
GI50 (Hs-578T): > 100 µM (inactive)
GI50 (MCF7): > 100 µM (inactive)
GI50 (MDA-MB-435): > 100 µM (inactive)
GI50 (MDA-N): > 100 µM (inactive)
GI50 (Malme-3M): > 100 µM (inactive)
GI50 (NCI-H226): > 100 µM (inactive)
GI50 (NCI-H522): > 100 µM (inactive)
GI50 (SF-268): > 100 µM (inactive)
GI50 (SF-539): > 100 µM (inactive)
GI50 (SK-MEL-28): > 100 µM (inactive)
GI50 (SK-MEL-2): > 100 µM (inactive)
GI50 (SN12C): > 100 µM (inactive)
GI50 (SNB-75): > 100 µM (inactive)
GI50 (UO-31): > 100 µM (inactive)

CNC(=O)C(CC(C)C)NC(=O)C(C)NC(=O)C(Cc1ccc(OCc2ccccc2)cc1)NC(=O)C(COCc1ccccc1)NC(=O)OC(C)(C)C (centres undefined) (Boc-S(Bn)Y(Bn)AL-NHMe; configuration not given here)
GI50 (786-0): 22.8 µM (inactive) and 20.7 µM (inactive)
GI50 (BT-549): 18.5 µM (inactive) and 22 µM (inactive)
GI50 (CAKI-1): 32.5 µM (inactive) and > 64 µM (inactive)
GI50 (DU-145): 65.5 µM (inactive)
GI50 (HCT-116): 6.5 µM (inactive) and 7.45 µM (inactive)
GI50 (HCT-15): > 100 µM
GI50 (HOP-62): 20.5 µM (inactive) and 22.6 µM (inactive)
GI50 (HOP-92): 24.9 µM (inactive) and 30.5 µM (inactive)
GI50 (HT-29): 13.6 µM (inactive) and 13.4 µM (inactive)
GI50 (Hs-578T): 25 µM (inactive) and 15.8 µM (inactive)
GI50 (IGROV-1): 22.3 µM (inactive) and 23.1 µM (inactive)
GI50 (K562): 9.95 µM (inactive) and 12.6 µM (inactive)
GI50 (KM12): 17 µM (inactive) and 18.2 µM (inactive)
GI50 (LOX IMVI): 16.5 µM (inactive) and 11.4 µM (inactive)
GI50 (MCF7): 10.7 µM (inactive) and 16.1 µM (inactive)
GI50 (MDA-MB-231): 15.6 µM (inactive) and 16.6 µM (inactive)
GI50 (MDA-N): 12.1 µM (inactive) and 14.8 µM (inactive)
GI50 (MOLT-4): 6.85 µM (inactive) and 6.15 µM (inactive)
GI50 (NCI-H23): 20.1 µM (inactive) and 27.2 µM (inactive)
GI50 (NCI-H522): > 10 µM (inactive) and 13.8 µM (inactive)
GI50 (NCI/ADR-RES): > 100 µM (inactive)
GI50 (OVCAR-4): 17.9 µM (inactive) and 20.6 µM (inactive)
GI50 (OVCAR-8): 16.9 µM (inactive) and 17.1 µM (inactive)
GI50 (SF-268): 17.5 µM (inactive) and 22.9 µM (inactive)
GI50 (SF-539): > 42.2 µM (inactive)
GI50 (SK-OV-3): 18.5 µM (inactive) and 27.7 µM (inactive)
GI50 (SNB-19): 30 µM (inactive) and 17.4 µM (inactive)
GI50 (SR): 15.1 µM (inactive) and 8.55 µM (inactive)
GI50 (SW-620): 11.5 µM (inactive) and 8.65 µM (inactive)
GI50 (U-251): 15.9 µM (inactive) and 8.57 µM (inactive)
GI50 (UACC-257): > 100 µM (inactive)
GI50 (UACC-62): 18.5 µM (inactive) and > 10 µM (inactive)
GI50 (UO-31): > 100 µM (inactive)

CCc1nnc(CC)n1-n1c(Cc2ccccc2)n[nH]c1=O
GI50 (786-0): > 100 µM (inactive)
GI50 (A549): > 100 µM (inactive)
GI50 (ACHN): > 100 µM (inactive)
GI50 (BT-549): > 100 µM (inactive)
GI50 (CCRF-CEM): > 100 µM (inactive)
GI50 (COLO 205): > 100 µM (inactive)
GI50 (DU-145): > 100 µM (inactive)
GI50 (EKVX): > 100 µM (inactive)
GI50 (HCC 2998): > 100 µM (inactive)
GI50 (HCT-116): > 100 µM (inactive)
GI50 (HCT-15): > 100 µM
GI50 (HOP-62): > 100 µM (inactive)
GI50 (HOP-92): > 100 µM (inactive)
GI50 (HT-29): > 100 µM (inactive)
GI50 (IGROV-1): > 100 µM (inactive)
GI50 (K562): > 100 µM (inactive)
GI50 (KM12): > 100 µM (inactive)
GI50 (LOX IMVI): > 100 µM (inactive)
GI50 (M14): > 100 µM (inactive)
GI50 (MCF7): > 100 µM (inactive)
GI50 (MDA-MB-231): > 100 µM (inactive)
GI50 (MDA-MB-435): > 100 µM (inactive)
GI50 (MDA-N): > 100 µM (inactive)
GI50 (MOLT-4): > 100 µM (inactive)
GI50 (NCI-H23): > 100 µM (inactive)
GI50 (NCI-H522): > 100 µM (inactive)
GI50 (NCI/ADR-RES): > 100 µM (inactive)
GI50 (OVCAR-3): > 100 µM (inactive)
GI50 (OVCAR-4): > 100 µM (inactive)
GI50 (OVCAR-5): > 100 µM (inactive)
GI50 (OVCAR-8): > 100 µM (inactive)
GI50 (PC-3): > 100 µM (inactive)
GI50 (RPMI-8226): > 100 µM (inactive)
GI50 (RXF 393): > 100 µM (inactive)
GI50 (SF-268): > 100 µM (inactive)
GI50 (SF-295): > 100 µM (inactive)
GI50 (SF-539): > 100 µM (inactive)
GI50 (SK-MEL-28): > 100 µM (inactive)
GI50 (SK-MEL-2): > 100 µM (inactive)
GI50 (SK-MEL-5): > 100 µM (inactive)
GI50 (SK-OV-3): > 100 µM (inactive)
GI50 (SN12C): > 100 µM (inactive)
GI50 (SNB-19): > 100 µM (inactive)
GI50 (SNB-75): > 100 µM (inactive)
GI50 (SR): > 100 µM (inactive)
GI50 (SW-620): > 100 µM (inactive)
GI50 (TK-10): > 100 µM (inactive)
GI50 (U-251): > 100 µM (inactive)
GI50 (UACC-257): > 100 µM (inactive)
GI50 (UACC-62): > 100 µM (inactive)
GI50 (UO-31): > 100 µM (inactive)
